Measurements: ChEMBL document CHEMBL1201862, “PubChem BioAssay data set” (2004)
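Interpolation was linear, between the two tested concentrations surrounding the appropriate level; five concentrations were tested over 48 hours in 96-well plates. The concentration for 50% growth inhibition is given as GI50.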 Activity calls are given as the source filed them. Cut-off read from the data, not from the text of the source: active = GI50 up to about 1.1 µM and inactive = higher.

What was measured:
Assay in all cases: inhibition of tumour cell growth, NCI panel, 48 h
[1] = test system: A549
[2] = test system: MOLT-4
[3] = test system: SK-MEL-28
[4] = test system: NCI-H23
[5] = test system: TK-10
[6] = test system: OVCAR-4
[7] = test system: OVCAR-8
[8] = test system: UACC-62
[9] = test system: NCI-H522
[10] = test system: BT-549
[11] = test system: SW-620
[12] = test system: SR
[13] = test system: HT-29
[14] = test system: 786-0
[15] = test system: MDA-MB-435
[16] = test system: NCI-H226
[17] = test system: SK-MEL-2
[18] = test system: ACHN
[19] = test system: Hs-578T

| Compound | GI50 [1] | GI50 [2] | GI50 [3] | GI50 [4] | GI50 [5] | GI50 [6] | GI50 [7] | GI50 [8] | GI50 [9] | GI50 [10] | GI50 [11] | GI50 [12] | GI50 [13] | GI50 [14] | GI50 [15] | GI50 [16] | GI50 [17] | GI50 [18] | GI50 [19] |
| --- | --- | --- | --- | --- | --- | --- | --- | --- | --- | --- | --- | --- | --- | --- | --- | --- | --- | --- | --- |
| COc1cccc(-c2nc(-c3cnccn3)n(COCCO)n2)c1 | > 100 µM (inactive) | > 100 µM (inactive) | > 100 µM (inactive) | > 100 µM (inactive) | > 100 µM (inactive) | > 100 µM (inactive) | > 100 µM (inactive) | > 100 µM (inactive) | > 100 µM (inactive) | > 100 µM (inactive) | > 100 µM (inactive) | > 100 µM (inactive) | > 100 µM (inactive) | > 100 µM (inactive) | > 100 µM (inactive) |  |  |  |  |
| CC(C)=CCC/C(C)=C/Cc1c(O)c(C)cc2c1[nH]c1cc(O)ccc12 | > 25 µM (inactive) | > 25 µM (inactive) | > 25 µM (inactive) |  | > 25 µM (inactive) | > 25 µM (inactive) | > 25 µM (inactive) | > 25 µM (inactive) | > 25 µM (inactive) |  | > 25 µM (inactive) | > 25 µM (inactive) | > 25 µM (inactive) | > 25 µM (inactive) |  | > 25 µM (inactive) | > 25 µM (inactive) | > 25 µM (inactive) |  |
| CC(C)Oc1c(O)c2c3c(oc(=O)n3C=CC2c2ccccc2)c1OC(C)C (configuration not stated) | 27.3 µM (inactive) | 31 µM (inactive) | 22.5 µM (inactive) | 20.2 µM (inactive) | 22.1 µM (inactive) | 24.6 µM (inactive) | 31.9 µM (inactive) |  |  |  | 32 µM (inactive) |  | 24.2 µM (inactive) | 36.1 µM (inactive) | > 10 µM (inactive) | 27.6 µM (inactive) | 15.7 µM (inactive) | > 10 µM (inactive) |  |
| CN(C)CCCn1cnc2ncccc2c1=O | > 100 µM (inactive) | > 100 µM (inactive) | > 100 µM (inactive) | > 100 µM (inactive) | > 100 µM (inactive) | > 100 µM (inactive) | > 100 µM (inactive) | > 100 µM (inactive) | > 100 µM (inactive) |  | > 100 µM (inactive) | > 100 µM (inactive) | > 100 µM (inactive) | > 100 µM (inactive) |  | > 100 µM (inactive) | > 100 µM (inactive) | > 100 µM (inactive) |  |
| CC(C)CC(=O)CC(C)[C@]1(CCCOCc2ccccc2)C(=O)N2CCC3(C[C@@]24CCC[C@H]41)OCCO3 (some centres not stated) |  | > 10 µM (inactive) |  | > 10 µM (inactive) | > 10 µM (inactive) | > 10 µM (inactive) | > 10 µM (inactive) |  | > 10 µM (inactive) |  | > 10 µM (inactive) | > 10 µM (inactive) |  | > 10 µM (inactive) | > 10 µM (inactive) | > 10 µM (inactive) | > 10 µM (inactive) |  |  |
| O=C(C/C(=N\NC(=O)C[n+]1ccccc1)C(=O)Nc1nc2ccc([N+](=O)[O-])cc2s1)CC(c1ccccc1)c1c(O)c2ccccc2oc1=O (configuration not stated) | > 100 µM (inactive) | > 100 µM (inactive) | > 100 µM (inactive) | > 100 µM (inactive) | > 100 µM (inactive) | > 100 µM (inactive) | > 100 µM (inactive) | > 100 µM (inactive) | 99.5 µM (inactive) |  | > 100 µM (inactive) | > 100 µM (inactive) | > 100 µM (inactive) | > 100 µM (inactive) |  |  | > 100 µM (inactive) | > 100 µM (inactive) |  |
| CN(C)c1cccc2c1C(=O)C=CC21c2ccc(N(C)C)c3c(N(C)C)ccc(c23)C(c2ccccc2)C1c1ccccc1 (configuration not stated) | 27.5 µM (inactive) | 0.592 µM (active) | 17.5 µM (inactive) | 24.7 µM (inactive) | 12 µM (inactive) | 3.85 µM (inactive) | 13.5 µM (inactive) | 20.1 µM (inactive) | 21.3 µM (inactive) |  | 19.8 µM (inactive) | 7.82 µM (inactive) | 14.9 µM (inactive) | 9.44 µM (inactive) | 15 µM (inactive) | 12.7 µM (inactive) |  | 13.1 µM (inactive) | 10 µM (inactive) |
| Cc1ccc2c(c1)C(=O)C1(C2)Cc2cccc(C)c2C1=O (configuration not stated) | > 100 µM (inactive) | > 100 µM (inactive) | > 100 µM (inactive) | > 100 µM (inactive) | > 100 µM (inactive) | > 100 µM (inactive) | > 100 µM (inactive) | 77.3 µM (inactive) | > 100 µM (inactive) |  | > 100 µM (inactive) | > 100 µM (inactive) | > 100 µM (inactive) | > 100 µM (inactive) | > 100 µM (inactive) | > 100 µM (inactive) |  | > 100 µM (inactive) | > 100 µM (inactive) |
| O=C(Nc1ccc(S(=O)(=O)/N=c2\ncccn2C(=O)C(C(F)(F)F)C(F)(F)F)cc1)C(C(F)(F)F)C(F)(F)F | > 100 µM (inactive) | > 100 µM (inactive) | > 100 µM (inactive) | > 100 µM (inactive) | > 100 µM (inactive) | > 100 µM (inactive) | > 100 µM (inactive) | > 100 µM (inactive) | > 100 µM (inactive) |  |  |  | > 100 µM (inactive) | > 100 µM (inactive) | > 100 µM (inactive) | > 100 µM (inactive) | > 100 µM (inactive) | > 100 µM (inactive) | > 100 µM (inactive) |
